The text below walks through data of patent US20240374557A1, “BETA ADRENERGIC RECEPTOR COMPOSITIONS AND METHODS OF USE THEREOF” (THE BOARD OF REGENTS OF THE UNIVERSITY OF TEXAS SYSTEM, priority 2021, published 2024).

Structures are written as SMILES.

The test system of data set [1] is C57BL/6N mice on 42% high fat diet. In words: 4-week treatment of high fat diet fed mice: body weight, body composition, cholesterol, oral glucose tolerance. The data set is classed as in vivo. As to conditions: compared to placebo. The procedure:
(§1) In brief, three cohorts of male C57BL/6N mice, including a total of 100 mice, were used in these studies. Five-week-old mice were placed on a 42% high fat diet for 4 weeks. The treatments were provided for 4 weeks, during which time mice were maintained on the 42% high fat diet.
(§2) Mirabegron, an ADRB3 agonist, was administered at an 8 mg/kg daily dose. Atenolol is an ADRB1 antagonist and was administered to the mice at, on average, 60 mg/kg per day. Mirabegron or its buffer (5% PEG 400; placebo) were administered to the mice daily by gavage for 4 weeks. Mice were also given ad libitum access to a water bottle or a water bottle containing atenolol. […] Oral glucose tolerance testing was performed on overnight fasted mice administered 5 μL 60% glucose solution per g BW using a gavage tube; blood glucose levels were determined with a glucometer using blood from tail nicks at times 0, 15, 30, 60 and 120 minutes. Blood pressure measurements were obtained using a CODA-HT8 High Throughput Noninvasive Blood Pressure system with 8 activated channels for use with mice and rats from Kent Scientific. Methods and statistical analysis were performed as described above.

The test system is the same in data set [2]. As to conditions: 4 weeks, compared to placebo; mirabegron 8 mg/kg daily, atenolol 60 mg/kg per day. The procedure: as §1, §2
In data set [3] the test system is Ad-Adrb1KO mice and littermate controls. In words: Co-administration of CL-316243 with insulin or glucose: blood glucose, plasma insulin, NEFA. As to conditions: for increase in plasma insulin levels: CL-316243 0.1 mg/kg co-administered with glucose, 30 minutes after vs before.
Description: (§3) Treatment with CL 316, 243. Mice were fasted for 2 hours (0800-1000) and then given an injection of the ADRB3 agonist CL 316,243 (“CL”, 0.001-1 mg/kg) or vehicle (saline). In some cohorts, human recombinant insulin (Eli Lilly) or D-glucose (Sigma 49163-100ML) was co-administrated with CL.
Evaluation of insulin and NEFA levels. Blood from tail vein was collected before and 30 minutes after co-administration of CL with D-glucose into EDTA tubes. Plasma was isolated by centrifugation (4000 g×10 minutes at 4° C.). Plasma insulin (Mouse Ultrasensitive Insulin ELISA, ALPCO, 80-INSMSU-E01) and NEFA (FUJIFILM Wako Diagnostics-NEFA Reagent, 999-34691, 995-34791, 991-34891, 993-35191) levels were measured following manufacturer recommendations.
The subject of data set [4] is Adrb1, Ppargc1a and Ucp1 mRNA expression in eWAT, iWAT and BAT. As to the kind of experiment: Quantitative real-time PCR of adipose depots after CL-316243 injection. It is filed as in vivo, mice. As to conditions: CL-316243 0.1 mg/kg. On the procedure: Quantitative real-time PCR. […] Total mRNA was isolated from eWAT, iWAT and interscapular BAT using the Aurum™ Total RNA Fatty and Fibrous Tissue Kit (Bio-Rad, 732-6830). RNA concentration was estimated from absorbance at 260 nm. cDNA synthesis was performed using the iScript Advanced cDNA Synthesis Kit (Bio-Rad, 172-5038). mRNA extraction and cDNA synthesis were performed following the manufacturer's instructions. cDNA was diluted in DNase-free water before quantification by real-time PCR. Relative quantification of gene expression was performed on diluted cDNA in duplicate samples using a CFX384 Touch™ real-time PCR (Bio-Rad). Fold differences in targeted mRNA expression were calculated using the 2-delta cycle threshold method and data were normalized to beta-microglobulin (B2m) expression. TaqMan gene expression assays for Adrb1 (Mm00431701_s1), B2m (Mm00437762_m1), Ppargc1a (Mm01208835_m1), and Ucp1 (Mm01244861_m1) were purchased from ThermoFisher Scientific.

Data set [5] relates to Ad-Adrb1KO mice and littermate controls. In words: Acute CL-316243 injection: body weight, blood glucose, BAT mass and BAT histology. It is filed as in vivo. The procedure:
Physiological relevance of crosstalk between ADRB1 and ADRB3 in adipocytes was assessed. […] Four hours after CL-316243 injection, mice were sacrificed and BAT depots were dissected.
Treatment with CL 316, 243.
Histology. […] Samples were then dehydrated, embedded in paraffin, and cut into […] sections. Sections were stained with hematoxylin and eosin (H&E) to perform general histology. All pictures were taken at a magnification of 20× on a Zeiss Axioskop 2 microscope connected to a digital camera (AxioCam; Zeiss, Thornwood, NY). Only the sharpness, contrast, and brightness were adjusted.

Data set [6] has the same test system. In words: Blood glucose over 60 minutes after CL-316243 dose range. As to conditions: for reducing glycemia: 0.001 mg/kg.
Description: Tail vein blood glucose levels were then monitored using a glucometer (Bayer's Contour Blood Glucose Monitoring System.
as §3
Data set [7] deals with ADRB3. As to conditions: cited from earlier work.
Where [8] appears, read: 4 weeks, mirabegron 8 mg/kg daily gavage, atenolol 60 mg/kg per day in water.
Where [9] appears, read: every adipose depot, independent of the genotype.
The mark [10] stands for this setting: CL-316243 0.1 mg/kg, Ad-Adrb1KO mice.

Turning to `Nc1nc(CC(=O)Nc2ccc(CCNC[C@H](O)c3ccccc3)cc2)cs1` [mirabegron], in data set [1] (setting [8]), the LDL cholesterol entry is “significant decreases”, the epididymal fat mass entry is “significant decreases”, the total body weight entry is listed as “significant decreases” and the total cholesterol result is “significant decreases”. In data set [1] (setting [8]), the total fat mass result is recorded as “significant decreases”. The “glucose tolerance (blood glucose area under the curve)” value in data set [1] (oral glucose tolerance test after 4 weeks) is on record as “significant improvements”. In addition, in data set [2], the “diastolic blood pressure (DBP)” value is “elevated”, the “mean arterial blood pressure (MBP)” value was “elevated” and the “systolic blood pressure (SBP)” value was “elevated”.
`C[C@H](Cc1ccc2c(c1)OC(C(=O)[O-])(C(=O)[O-])O2)NC[C@H](O)c1cccc(Cl)c1.[Na+].[Na+]` [CL-316243, 5-[(2R)-2-[[(2R)-2-(3-Chlorophenyl)-2-hydroxyethyl]amino]propyl]-1,3-benzodioxole-2,2-dicarboxylic acid disodium salt]: the figures for the “increase in plasma insulin levels” value in data set [3] (Ad-Adrb1KO mice) and in data set [3] (littermate controls) were 43 fold and 12 fold, respectively. The glucose clearance entry in data set [3] (CL-316243 0.1 mg/kg co-administrated with glucose, Ad-Adrb1KO mice) is “drastically improved”. Further, in data set [3] (CL-316243 0.1 mg/kg in combination with insulin, Ad-Adrb1KO mice compared to control littermates), the insulin sensitivity entry was “slight but significant improvement”. The “plasma NEFA levels between Ad-Adrb1KO mice and littermate controls” value in data set [3] (CL-316243 co-administrated with glucose) was “no difference”. Besides, the “Adrb1 mRNA expression (significantly reduced or not)” value is on record as “not” in data set [4] (BAT, littermate controls) and “not in iWAT” in data set [4] (iWAT, littermate controls). The “Adrb1 mRNA expression” value in data set [4] (eWAT, littermate controls) is “significantly reduced”. Further, in data set [4] (setting [9]), the “Ppargc1a mRNA expression” value is reported as “increase”. Besides, the “Ucp1 mRNA expression” value in data set [4] (setting [9]) is reported as “increase”. The BAT mass result in data set [5] (setting [10]) is listed as “comparable to CL-316243-treated littermates”. Further, the “CL-316243-induced mobilization of intracellular triglycerides in BAT” value in data set [5] (setting [10]) is “markedly improved”. The “lipid droplets in H&E-stained BAT” value in data set [5] (CL-316243 0.1 mg/kg, mice lacking Adrb1 in adipocytes) is on record as “near-complete depletion”. Also, the “weight of the mice” value in data set [5] (acute CL-316243 0.1 mg/kg, Ad-Adrb1KO mice and littermate controls) is “did not significantly change”. The “efficiency to reduce blood glucose levels (treatment x genotype)” value in data set [5] (acute CL-316243 0.1 mg/kg, Ad-Adrb1KO vs littermate controls) is “significant interaction”. Further, the reducing glycemia entry in data set [6] (Ad-Adrb1KO mice) is reported as “still effective”; in data set [6] (littermate controls), “not littermate controls”. In addition, the blood glucose entry in data set [6] (both genotypes, even at low dose of 0.01 mg/kg, 60-minute period) is “glucose lowering effect”. Also, the “selectivity for ADRB3 over ADRB1 and ADRB2” value in data set [7] is “over 10000 fold”. Further, the concentration for a half-maximal effect (EC50) in data set [7] (read-out: EC50 (ADRB3 agonist)) was 3 nM.
